Laboratory results reported in US6762190B2, “Thienylalanine derivatives as inhibitors of cell adhesion” (Aventis Pharma S.A. Deutschland GmbH Genentech, Inc., priority 1999, dated 2004).

Key:
[1] = target: 293 cells cotransfected with αv and β3 subunits of the vitronectin receptor αvβ3, binding to human vitronectin (Vn) (Homo sapiens, UniProt P05106+P06756); assay: Vitronectin/293 cell test (inhibition of binding of 293 cells to human vitronectin); assay type: cell-based; settings: inhibition of binding of αvβ3-expressing 293 cells to human vitronectin
293 cells cotransfected with αv and β3 subunits of the vitronectin receptor αvβ3, binding to human vitronectin (Vn), sequence (P05106 whole entry): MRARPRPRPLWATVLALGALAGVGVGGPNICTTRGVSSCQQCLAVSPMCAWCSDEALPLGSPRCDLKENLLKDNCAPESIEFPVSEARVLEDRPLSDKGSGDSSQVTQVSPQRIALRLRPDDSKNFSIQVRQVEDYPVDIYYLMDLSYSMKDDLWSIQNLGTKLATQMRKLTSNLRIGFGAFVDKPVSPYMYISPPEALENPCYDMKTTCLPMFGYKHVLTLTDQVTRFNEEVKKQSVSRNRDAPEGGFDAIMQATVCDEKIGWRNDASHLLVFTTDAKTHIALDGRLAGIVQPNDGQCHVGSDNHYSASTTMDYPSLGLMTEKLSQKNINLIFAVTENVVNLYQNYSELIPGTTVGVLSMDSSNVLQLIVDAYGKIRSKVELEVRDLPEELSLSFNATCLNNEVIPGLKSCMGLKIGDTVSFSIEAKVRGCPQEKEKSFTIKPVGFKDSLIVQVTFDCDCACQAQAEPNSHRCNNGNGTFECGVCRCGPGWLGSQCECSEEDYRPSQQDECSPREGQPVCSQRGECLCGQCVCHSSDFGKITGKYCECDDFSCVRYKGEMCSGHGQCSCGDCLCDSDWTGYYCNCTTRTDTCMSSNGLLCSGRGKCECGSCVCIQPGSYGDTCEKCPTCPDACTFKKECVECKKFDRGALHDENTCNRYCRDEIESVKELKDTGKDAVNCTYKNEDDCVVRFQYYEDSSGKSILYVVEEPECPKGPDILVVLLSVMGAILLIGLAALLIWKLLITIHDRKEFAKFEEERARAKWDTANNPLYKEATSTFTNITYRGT
293 cells cotransfected with αv and β3 subunits of the vitronectin receptor αvβ3, binding to human vitronectin (Vn), sequence (P06756 whole entry): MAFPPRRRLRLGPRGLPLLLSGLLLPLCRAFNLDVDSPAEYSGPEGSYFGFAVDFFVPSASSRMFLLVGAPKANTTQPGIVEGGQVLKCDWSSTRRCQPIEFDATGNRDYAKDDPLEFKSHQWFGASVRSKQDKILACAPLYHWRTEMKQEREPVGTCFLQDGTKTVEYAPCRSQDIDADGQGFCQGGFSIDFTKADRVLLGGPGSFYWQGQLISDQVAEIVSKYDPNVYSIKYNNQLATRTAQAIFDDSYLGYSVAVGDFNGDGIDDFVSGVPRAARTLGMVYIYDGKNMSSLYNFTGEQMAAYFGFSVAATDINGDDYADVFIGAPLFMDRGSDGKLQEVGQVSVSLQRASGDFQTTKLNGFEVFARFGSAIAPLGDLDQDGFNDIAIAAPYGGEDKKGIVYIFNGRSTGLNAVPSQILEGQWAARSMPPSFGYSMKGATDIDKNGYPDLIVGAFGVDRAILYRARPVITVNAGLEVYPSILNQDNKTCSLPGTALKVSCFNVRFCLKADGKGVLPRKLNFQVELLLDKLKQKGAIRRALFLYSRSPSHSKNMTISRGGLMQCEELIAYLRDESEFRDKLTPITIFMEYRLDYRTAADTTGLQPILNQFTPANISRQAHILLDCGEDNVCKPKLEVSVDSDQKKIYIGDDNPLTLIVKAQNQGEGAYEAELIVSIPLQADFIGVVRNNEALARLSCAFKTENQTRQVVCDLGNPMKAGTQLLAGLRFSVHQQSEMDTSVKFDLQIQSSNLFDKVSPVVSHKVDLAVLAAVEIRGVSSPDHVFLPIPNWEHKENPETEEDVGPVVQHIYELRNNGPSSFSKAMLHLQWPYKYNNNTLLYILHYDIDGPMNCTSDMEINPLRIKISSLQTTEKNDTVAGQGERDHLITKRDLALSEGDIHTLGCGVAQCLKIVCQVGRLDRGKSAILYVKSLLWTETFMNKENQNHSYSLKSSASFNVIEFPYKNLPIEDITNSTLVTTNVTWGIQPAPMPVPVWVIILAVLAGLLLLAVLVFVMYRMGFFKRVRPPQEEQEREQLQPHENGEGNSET
Protocol: 2) Vitronectin/293 Cell Test
In this test the inhibition of binding of 293 cells to human vitronectin (Vn) by the compounds of the invention is determined (the test method is abbreviated as “Vn/293 cell test” in the listing of the test results).
Purification of Human Vitronectin
Human vitronectin was isolated from human plasma and purified by affinity chromatography according to the method of Yatohgo et al., Cell Structure and Function 23 (1988) 281.
293 cells, a human embryonic kidney cell line, which were cotransfected with DNA sequences for the αv and β3 subunits of the vitronectin receptor αvβ3, were selected for a high rate of expression (>500,000 αvβ3 receptors/cell) according to the FACS method. The selected cells were cultured and sorted again by means of FACS in order to obtain a stable cell line (15 D) with expression rates >1,000,000 copies of αvβ3 per cell.
A Linbro 96-well tissue culture plate with a flat bottom was coated overnight at 4° C. with human vitronectin (0.01 mg/ml, 0.05 ml/well) in phosphate-buffered saline solution (PBS) and then blocked with 0.5% strength BSA (bovine serum albumin). Solutions of the test substances from 10^−10 mol/l to 2×10^−3 mol/l in glucose-containing DMEM medium were prepared and 0.05 ml/well of the solution were added to the plate in each case. The cells which expressed high levels of αvβ3 (for example 15 D) were suspended in glucose-containing DMEM medium and the suspension was adjusted to a content of 25,000 cells/0.05 ml of medium. 0.05 ml of this cell suspension was added to each well and the plate was incubated at 37° C. for 90 min. The plate was washed 3 times with warm PBS in order to remove unbound cells. The bound cells were lyzed in citrate buffer (25 mM, pH 5.0) which contained 0.25% Triton X-100. The hexoseamidase substrate p-nitrophenyl-N-acetyl-β-D-glucosaminide was then added and the plate was incubated at 37° C. for 90 min. The reaction was stopped with a glycine (50 mM)/EDTA (5 mM) buffer (pH 10.4) and the absorption of each well was measured at 405 to 650 nm. The data were analyzed according to standard methods.

[2] = target: T1, human vitronectin receptor (VnR) αvβ3 (Homo sapiens, UniProt P05106+P06756); assay: Kistrin binding assay (αvβ3 ELISA test, K/VnR); settings: inhibition of binding of kistrin to human vitronectin receptor
T1 construct: Human vitronectin receptor was obtained from the human placenta according to the method of Pytela et al; from tissue; host or cells: human placenta
T1 sequence (P06756 31-889 limits assumed): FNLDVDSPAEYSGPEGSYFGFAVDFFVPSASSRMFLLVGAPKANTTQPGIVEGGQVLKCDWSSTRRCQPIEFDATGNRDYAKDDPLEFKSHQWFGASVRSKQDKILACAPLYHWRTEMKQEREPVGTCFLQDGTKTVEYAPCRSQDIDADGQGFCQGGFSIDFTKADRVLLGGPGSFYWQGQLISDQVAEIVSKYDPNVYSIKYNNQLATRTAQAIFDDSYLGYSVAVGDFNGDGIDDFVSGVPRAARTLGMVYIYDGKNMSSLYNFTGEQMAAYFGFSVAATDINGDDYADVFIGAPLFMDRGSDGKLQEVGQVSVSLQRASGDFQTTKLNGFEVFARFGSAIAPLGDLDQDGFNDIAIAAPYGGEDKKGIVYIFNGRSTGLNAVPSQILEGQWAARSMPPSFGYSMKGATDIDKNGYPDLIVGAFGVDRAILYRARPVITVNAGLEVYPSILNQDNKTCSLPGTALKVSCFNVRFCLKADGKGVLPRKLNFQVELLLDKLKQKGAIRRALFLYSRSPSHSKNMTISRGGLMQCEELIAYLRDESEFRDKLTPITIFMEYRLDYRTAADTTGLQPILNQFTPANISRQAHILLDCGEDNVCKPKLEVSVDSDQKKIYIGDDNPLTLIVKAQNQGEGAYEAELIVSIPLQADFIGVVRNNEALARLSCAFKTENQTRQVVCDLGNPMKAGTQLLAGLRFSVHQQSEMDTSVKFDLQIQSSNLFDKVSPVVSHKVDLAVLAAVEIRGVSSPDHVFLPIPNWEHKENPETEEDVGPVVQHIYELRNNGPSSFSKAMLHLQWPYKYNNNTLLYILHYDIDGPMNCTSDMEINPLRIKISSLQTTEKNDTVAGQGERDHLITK
T1 sequence (P06756 891-1048 partner limits assumed): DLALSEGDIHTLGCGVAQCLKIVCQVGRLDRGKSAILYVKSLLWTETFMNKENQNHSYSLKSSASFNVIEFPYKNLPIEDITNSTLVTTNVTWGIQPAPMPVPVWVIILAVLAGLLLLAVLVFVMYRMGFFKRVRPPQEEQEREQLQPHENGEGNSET
T1 sequence (P05106 27-788): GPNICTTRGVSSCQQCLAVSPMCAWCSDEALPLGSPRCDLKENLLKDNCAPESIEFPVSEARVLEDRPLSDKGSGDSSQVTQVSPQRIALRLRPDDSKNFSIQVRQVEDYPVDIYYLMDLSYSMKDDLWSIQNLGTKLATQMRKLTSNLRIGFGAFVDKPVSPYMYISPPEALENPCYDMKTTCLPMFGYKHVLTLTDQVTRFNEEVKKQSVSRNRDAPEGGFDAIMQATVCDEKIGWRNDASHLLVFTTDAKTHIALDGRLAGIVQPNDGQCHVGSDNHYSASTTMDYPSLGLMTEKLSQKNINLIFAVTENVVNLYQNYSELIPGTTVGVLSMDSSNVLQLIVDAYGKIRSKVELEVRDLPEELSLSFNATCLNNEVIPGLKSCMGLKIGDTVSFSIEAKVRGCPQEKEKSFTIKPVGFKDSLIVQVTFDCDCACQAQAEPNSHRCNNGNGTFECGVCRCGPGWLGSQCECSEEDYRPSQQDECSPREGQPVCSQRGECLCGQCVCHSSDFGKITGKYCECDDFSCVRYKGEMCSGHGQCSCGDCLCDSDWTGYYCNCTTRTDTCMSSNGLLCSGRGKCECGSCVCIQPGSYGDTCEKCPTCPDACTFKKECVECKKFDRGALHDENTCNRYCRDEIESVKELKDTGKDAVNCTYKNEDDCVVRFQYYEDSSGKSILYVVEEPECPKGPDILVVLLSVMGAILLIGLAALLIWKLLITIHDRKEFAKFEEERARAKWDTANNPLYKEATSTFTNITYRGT
Text: The inhibition of the binding of kistrin to human vitronectin receptor (VnR) described below is a test method by which the antagonistic action of the compounds of the invention on the vitronectin receptor αvβ3 can be determined (αvβ3 ELISA Test; the test method is abbreviated as “K/VnR” in the listing of the test results).
Kistrin was purified according to the methods of Dennis et al., as described in Proc. Natl. Acad. Sci. USA 87 (1989) 2471 and Proteins: Structure, Function and Genetics 15(1993)312.
Purification of Human Vitronectin Receptor (αvβ3)
Human vitronectin receptor was obtained from the human placenta according to the method of Pytela et al., Methods Enzymol. 144 (1987) 475. Human vitronectin receptor αvβ3 can also be obtained from some cell lines (for example from 293 cells, a human embryonic kidney cell line) which are cotransfected with DNA sequences for both subunits αv and β3 of the vitronectin receptor. The subunits were extracted with octyl glycoside and then chromatographed through concanavalin A, heparin-Sepharose and S-300.
Murine monoclonal antibodies which are specific for the β3 subunits of the vitronectin receptor, were prepared according to the method of Newman et al., Blood (1985) 227, or by a similar process. The rabbit Fab 2 anti-mouse Fc conjugate to horseradish peroxidase (anti-mouse Fc HRP) was obtained from Pel Freeze (Catalog No. 715 305-1).
The ability of substances to inhibit the binding of kistrin to the vitronectin receptor can be determined using an ELISA test. For this purpose, Nunc 96-well microtiter plates were coated with a solution of kistrin (0.002 mg/ml) according to the method of Dennis et al., as described in Proteins: Structure, Function and Genetics 15 (1993) 312. The plates were then washed twice with PBS/0.05% Tween-20 and blocked by incubating (60 min) with bovine serum albumin (BSA, 0.5%, RIA grade or better) in buffer solution (Tris-HCl (50 mM), NaCl (100 mM), MgCl2 (1 mM), CaCl2 (1 mM), MnCl2 (1 mM), pH 7). Solutions of known inhibitors and of the test substances were prepared in concentrations from 2×10^−12 to 2×10^−6 mol/l in assay buffer (BSA (0.5%, RIA grade or better); Tris-HCl (50 mM), NaCl (100 mM), MgCl2 (1 mM), CaCl2 (1 mM), MnCl2 (1 mM), pH 7). The blocked plates were emptied, and in each case 0.025 ml of this solution which contained a defined concentration (2×10^−12 to 2×10^−6 mol/l) either of a known inhibitor or of a test substance, were added to each well. 0.025 ml of a solution of the vitronectin receptor in assay buffer (0.03 mg/ml) is pipetted into each well of the plate and the plate was incubated at room temperature for 60-180 min on a shaker. In the meantime, a solution (6 ml/plate) of a murine monoclonal antibody specific for the β3 subunit of the vitronectin receptor was prepared in assay buffer (0.0015 mg/ml). A second rabbit antibody (0.001 ml of stock solution/6 ml of the murine monoclonal anti-β3 antibody solution) which is an anti-mouse Fc HRP antibody conjugate was added to this solution, and this mixture of murine anti-β3 antibody and rabbit anti-mouse Fc HRP antibody conjugate was incubated during the time of the receptor-inhibitor incubation. The test plates were washed four times with PBS solution which contains 0.05% Tween-20, and in each case 0.05 ml/well of the antibody mixture was pipetted into each well of the plate and incubated for 60-180 min. The plate was washed four times with PBS/0.05% Tween-20 and then developed with 0.05 ml/well of a PBS solution which contained 0.67 mg/ml of o-phenylenediamine and 0.012% of H2O2. Alternatively to this, o-phenylenediamine can be employed in a buffer (pH 5) which contains Na3PO4 and citric acid. The color development was stopped using 1 N H2SO4 (0.05 ml/well). The absorption for each well was measured at 492-405 nm and the data were evaluated by standard methods.

Row | IC50 [1] | IC50 [2] | Structure (SMILES)
1 | 850 nM | 12 nM | O=C(CCCCc1ccc(C[C@H](NS(=O)(=O)c2ccc(Cl)cc2)C(=O)O)s1)NC1=NCCCN1 [Example 4, (2S)-2-(4-Chlorobenzenesulfonylamino)-3-(5-(4-(1,4,5,6-tetrahydropyrimidin-2-ylcarbamoyl)-butyl)-thiophen-2-yl)-propionic acid]
2 | 220 nM | 23 nM | O=C(CCCCc1ccc(C[C@H](NC(=O)OCC23CC4CC(CC(C4)C2)C3)C(=O)O)s1)NC1=NCCCN1 [Example 12, (2S)-2-(Adamantan-1-ylmethoxycarbonylamino)-3-(5-(4-(1,4,5,6-tetrahydropyrimidin-2-ylcarbamoyl)-butyl)-thiophen-2-yl)-propionic acid]
3 | 330 nM | 15 nM | O=C(CCCCc1ccc(C[C@H](NS(=O)(=O)c2ccc3ccccc3c2)C(=O)O)s1)NC1=NCCCN1 [Example 2, (2S)-2-(Naphthalene-2-sulfonylamino)-3-(5-(4-(1,4,5,6-tetrahydropyrimidin-2-ylcarbamoyl)-butyl)-thiophen-2-yl)-propionic acid]
4 | 420 nM | 15 nM | O=C(CCCCc1ccc(C[C@H](NS(=O)(=O)c2cccc(Cl)c2)C(=O)O)s1)NC1=NCCCN1 [Example 5, (2S)-2-(3-Chlorobenzenesulfonylamino)-3-(5-(4-(1,4,5,6-tetrahydropyrimidin-2-ylcarbamoyl)-butyl)-thiophen-2-yl)-propionic acid]
5 | 580 nM | 35 nM | O=C(CC/C=C/c1ccc(C[C@H](NC(=O)OCc2ccccc2)C(=O)O)s1)NC1=NCCCN1 [Example 15, (2S)-2-Benzyloxycarbonylamino-3-(5-(4-(1,4,5,6-tetrahydropyrimidin-2-ylcarbamoyl)-but-1-enyl)-thiophen-2-yl)-propionic acid]
6 | 1800 nM | 46 nM | CCCCS(=O)(=O)N[C@@H](Cc1ccc(CCCCC(=O)NC2=NCCCN2)s1)C(=O)O [Example 9, (2S)-2-(Butane-1-sulfonylamino)-3-(5-(4-(1,4,5,6-tetrahydropyrimidin-2-ylcarbamoyl)-butyl)-thiopen-2-yl)-propionic acid]
7 | 110 nM | 9 nM | O=C(CCCCc1ccc(C[C@H](NC(=O)OCc2ccccc2)C(=O)O)s1)NC1=NCCCN1 [Example 11, (2S)-2-Benzyloxycarbonylamino-3-(5-(4-(1,4,5,6-tetrahydropyrimidin-2-ylcarbamoyl)-butyl)-thiophen-2-yl)-propionic acid]
8 | 1000 nM | 9.5 nM | O=C(CCCCc1ccc(C[C@H](NS(=O)(=O)c2ccccc2)C(=O)O)s1)NC1=NCCCN1 [Example 3, (2S)-2-Benzenesulfonylamino-3-(5-(4-(1,4,5,6-tetrahydropyrimidin-2-ylcarbamoyl)-butyl)-thiophen-2-yl)-propionic acid]
9 | 420 nM | 23 nM | O=C(CCCCc1ccc(C[C@H](NS(=O)(=O)c2cccc3ccccc23)C(=O)O)s1)NC1=NCCCN1 [Example 1, (2S)-2-(Naphthalene-1-sulfonylamino)-3-(5-(4-(1,4,5,6-tetrahydropyrimidin-2-ylcarbamoyl)-butyl)-thiophen-2-yl)-propionic Acid]
10 | 210 nM | 97 nM | O=C(CCCCCc1ccc(C[C@H](NC(=O)OCc2ccccc2)C(=O)O)s1)NC1=NCCCN1 [Example 13, (2S)-2-Benzyloxycarbonylamino-3-(5-(5-(1,4,5,6-tetrahydropyrimidin-2-ylcarbamoyl)-pentyl)-thiophen-2-yl)-propionic acid]
11 | 690 nM | 40 nM | O=C(CCC/C=C/c1ccc(C[C@H](NC(=O)OCc2ccccc2)C(=O)O)s1)NC1=NCCCN1 [Example 14, (2S)-2-Benzyloxycarbonylamino-3-(5-(5-(1,4,5,6-tetrahydropyrimidin-2-ylcarbamoyl)-pent-1-enyl)-thiophen-2-yl)-propionic acid]
12 | 6900 nM | 95 nM | CC(C)(C)c1ccc(S(=O)(=O)N[C@@H](Cc2ccc(CCCCC(=O)NC3=NCCCN3)s2)C(=O)O)cc1 [Example 10, (2S)-2-(4-tert-Butylbenzenesulfonylamino)-3-(5-(4-(1,4,5,6-tetrahydropyrimidin-2-ylcarbamoyl)-butyl)-thiophen-2-yl)-propionic acid]
13 | 2000 nM | 28 nM | O=C(CCCCc1ccc(C[C@H](NS(=O)(=O)c2ccc(C(F)(F)F)cc2)C(=O)O)s1)NC1=NCCCN1 [Example 6, (2S)-3-(5-(4-(1,4,5,6-Tetrahydropyrimidin-2-ylcarbamoyl)-butyl)-thiophen-2-yl)-2-(4-trifluoromethylbenzenesulfonylamino)-propionic acid]
14 | 1000 nM | 60 nM | CCCS(=O)(=O)N[C@@H](Cc1ccc(CCCCC(=O)NC2=NCCCN2)s1)C(=O)O [Example 8, (2S)-2-(Propane-1-sulfonylamino)-3-(5-(4-(1,4,5,6-tetrahydropyrimidin-2-ylcarbamoyl)-butyl)-thiophen-2-yl)-propionic acid]
15 | 400 nM | 11 nM | O=C(CCCCc1ccc(C[C@H](NS(=O)(=O)CC(F)(F)F)C(=O)O)s1)NC1=NCCCN1 [Example 7, (2S)-3-(5-(4-(1,4,5,6-Tetrahydropyrimidin-2-ylcarbamoyl)-butyl)-thiophen-2-yl)-2-(2,2,2-trifluoroethanesulfonylamino)-propionic acid]
